From PubChem BioAssay AID2060625 (Molecular Pharmacology Branch, DTP, NCI, 2025)

Tested on: 186277-243-T-J2-PDC spheroids with HUVEC/MSC, viability
Assay: Anticancer human tumor 186277-243-T-J2-PDC patient-derived colon adenocarcinoma cell line growth inhibition [CLK]
Details: for IC50: curve of first compound; for viability, T/C: stronger effect = lower value; active = viability on the fitted dose curve at most 10% of control; inactive = the rest
Outline: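 Patient-derived tumor cells grown as complex spheroids with HUVEC endothelial cells and mesenchymal stem cells, treated with drug combinations. Concentrations descend in half-log steps from near clinical Cmax, or from 10 microM if Cmax unknown.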
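Also: compound exposure lasted seven days before readout.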
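For viability, T/C in this document: 100% = DMSO vehicle control wells.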

COc1ccc([C@@H](O)c2cc(-c3ncnc4cc(N5CCOCC5)ccc34)c(F)cc2Cl)nn1 + CNC(=O)c1ccc(Nc2nc(OC3CCCC3)c3c(-c4ccc5nc(C)oc5c4)c[nH]c3n2)c(OC)c1
0.384 µM: IC50 (second compound 0.1 µM)
< 0.0316 µM: IC50 (second compound 0.316 µM) | IC50 (second compound 1 µM) | IC50 (second compound 3.16 µM) | IC50 (second compound 10 µM)
7.66 µM: IC50 (second compound 0.0316 µM)
inactive: viability, T/C (second compound 0.0316 µM, first compound 0.0316 µM) 102% | viability, T/C (second compound 0.0316 µM, first compound 0.1 µM) 86.8% | viability, T/C (second compound 0.0316 µM, first compound 0.316 µM) 110% | viability, T/C (second compound 0.0316 µM, first compound 1 µM) 87.6% | viability, T/C (second compound 0.0316 µM, first compound 3.16 µM) 73.7% | viability, T/C (second compound 0.0316 µM, first compound 10 µM) 43% | viability, T/C (second compound 0.1 µM, first compound 0.0316 µM) 71.8% | viability, T/C (second compound 0.1 µM, first compound 0.1 µM) 62.5% | viability, T/C (second compound 0.1 µM, first compound 0.316 µM) 50.2% | viability, T/C (second compound 0.1 µM, first compound 1 µM) 42.7% | viability, T/C (second compound 0.1 µM, first compound 3.16 µM) 31.9% | viability, T/C (second compound 0.1 µM, first compound 10 µM) 23.5% | viability, T/C (second compound 0.316 µM, first compound 0.0316 µM) 38.7% | viability, T/C (second compound 0.316 µM, first compound 0.1 µM) 40.7% | viability, T/C (second compound 0.316 µM, first compound 0.316 µM) 29.9% | viability, T/C (second compound 0.316 µM, first compound 1 µM) 23.7% | viability, T/C (second compound 0.316 µM, first compound 3.16 µM) 18.6% | viability, T/C (second compound 0.316 µM, first compound 10 µM) 14.5% | viability, T/C (second compound 1 µM, first compound 0.0316 µM) 30.4% | viability, T/C (second compound 1 µM, first compound 0.1 µM) 25.2% | viability, T/C (second compound 1 µM, first compound 0.316 µM) 23.4% | viability, T/C (second compound 1 µM, first compound 1 µM) 16.2% | viability, T/C (second compound 1 µM, first compound 3.16 µM) 12.9% | viability, T/C (second compound 1 µM, first compound 10 µM) 12.2% | viability, T/C (second compound 3.16 µM, first compound 0.0316 µM) 27.1% | viability, T/C (second compound 3.16 µM, first compound 0.1 µM) 29.2% | viability, T/C (second compound 3.16 µM, first compound 0.316 µM) 23.2% | viability, T/C (second compound 3.16 µM, first compound 1 µM) 18.5% | viability, T/C (second compound 3.16 µM, first compound 3.16 µM) 16% | viability, T/C (second compound 3.16 µM, first compound 10 µM) 10.7% | viability, T/C (second compound 10 µM, first compound 0.0316 µM) 28.7% | viability, T/C (second compound 10 µM, first compound 0.1 µM) 29.5% | viability, T/C (second compound 10 µM, first compound 0.316 µM) 23.2% | viability, T/C (second compound 10 µM, first compound 1 µM) 19.8% | viability, T/C (second compound 10 µM, first compound 3.16 µM) 17.2% | viability, T/C (second compound 10 µM, first compound 10 µM) 9%
